Broadly, the melting point is the temperature, or range, at which the solid turns liquid. In turn, `CCCc1nn(C)c(C(N)=O)c1C(=O)c1ccc(N)cc1` registered a melting point of 140 °C. To `N#Cc1ccc(C(F)(F)F)cc1N=NN(C(=O)Nc1ccccc1)c1cc(C(F)(F)F)ccc1C#N` belongs 157 to 158 °C; to `N#Cc1ccncc1OC1SCC(O)C(O)C1O` (centres undefined), 157 °C. As to `CC(=O)Nc1c(C)ccc(O)c1C`, the melting point was in the range of 190 to 195 °C.

`O=C(O)CC(CC(=O)O)c1ccc(F)cc1` registered a melting point of 145 to 147 °C. To `Cc1cc(C)cc(Sc2cccc([N+](=O)[O-])c2C#N)c1` belongs 155 to 156 °C; to `NCCc1ccc(CCNS(=O)(=O)c2ccc(Cl)cc2)cc1`, 90 to 93 °C. To `O=S(Cc1nnc(-c2ccc3c(c2)CCO3)o1)c1cccc(F)c1` (centres undefined) belongs 131 to 132 °C.

The molecule `O=C(O)CNC(=O)c1c(F)cccc1[N+](=O)[O-]` displayed a melting point of 148 to 150 °C. Consider `CCCOc1ccc(N2CCCn3c2nc2c(Cl)ccc(C(OC(F)F)C(F)(F)F)c23)c(C)n1` (centres undefined), for which the melting point fell in the range of 156 to 158 °C. With `Cc1cc(-n2c(C)nc3ccccc32)cc2c1NC(=O)CC2C` (centres undefined), the melting point was 248 to 252 °C. To `CC1CC(=O)N(C)N=C1c1ccc2c(c1)OCC(=O)N2` (centres undefined) belongs 204 to 206 °C; to `Cn1nc(C#N)c(Nc2ccccc2[N+](=O)[O-])n1`, 144 to 145 °C; to `COc1ccc2c(c1)NC(c1ccccc1)CO2` (centres undefined), 79 to 81 °C.

The molecule `Cc1ccc(-c2cc(Cl)c3cc(Cl)ccc3n2)cc1` had a melting point of 123 to 125 °C. `CCOc1cccn2nc(-c3ccccc3)c(-c3ccc(=O)n(C(C)C)n3)c12` registered a melting point of 157 to 158 °C. Regarding `O=C1c2ccccc2C(=O)N1CCc1cccc(N2C(=O)N(c3c(Cl)cccc3Cl)Cc3cnc(Nc4ccccc4)nc32)c1`, the melting point is 142 °C. To `COC(=O)c1ccc(OCCCN(C(=O)CCC(=O)Nc2ccc(Cl)cc2)c2ccc(Cl)cc2)cc1` belongs 128 to 130 °C; to `CC1(C)CCc2c(-c3ccoc3)nc3sc4c(NCCCN5CCCC5=O)ncnc4c3c2C1`, 194 to 195 °C; to `Nc1nc2c(ncn2[C@@H]2CO[C@H](CO)[C@@H](O)C2)c(=O)[nH]1`, greater than 300 °C.

Turning to `CCNC(CO)Cc1cc(OC)cc(OC)c1` (centres undefined), the melting point fell in the range of 82 to 83 °C. In the case of `COc1ccc(-n2nnc3c(-c4ccc(C(F)(F)F)cc4F)ncnc32)cc1`, the melting point was 175 to 177 °C.

For `COc1cc(C)c(C(=O)c2c(C)cncc2Br)c(OC)c1OC`, the melting point lay within 88 to 93 °C. To `CN1CCC(OC2c3ccccc3CCn3c2nc(I)c3I)CC1` (centres undefined) belongs 163 °C; to `COc1ccc(-n2c(=O)c(C)nc3ccccc32)cc1`, 230 to 232 °C. `Cc1ccc(C(=O)NC(Cc2ccc(C(F)(F)F)cc2)C(=O)c2ccc(F)cc2)c2ccccc12` (centres undefined): the melting point was in the range of 149 to 150 °C. To `NC1=NS(=O)N=C1NCCCN(Cc1cccs1)c1ccccn1` (centres undefined) belongs 169 to 171 °C; to `C=CCOc1ccc(C(=O)O[C@H]2CC[C@H](C(=O)CCCCCBr)CC2)cc1`, 56 °C. The molecule `CCCCOC(=O)c1c(Cn2ccnc2)nc2cc(OC)c(OC)cc2c1-c1ccc(OC)c(OC)c1` had a melting point of 140 to 141 °C. To `N#CNC1NN=C(c2ccc3ccccc3c2)S1` (centres undefined) belongs greater than 260 °C; to `O=S(=O)(c1ccccc1)c1ccc2cnc(Nc3ccc(N4CCOCC4)cc3)nn12`, 110 to 115 °C. To `O=C(N[C@H](Cc1ccccc1)C(=O)O)OCc1ccc2oc(-c3ccccc3)nc2c1` belongs 220 to 221 °C. To `Cc1c(-c2ccccc2)oc2c(C(=O)NCCCl)cccc2c1=O` belongs 181 to 182 °C; to `CC[C@H](C)[C@H](N)C(=O)N(CC(C)C)C(=O)[C@@H]1CCCN1CC(=O)[C@H](Cc1ccccc1)NC(=O)OCc1ccccc1`, 80 to 81 °C; to `OCc1cc(C(F)(F)F)ccc1Sc1ccccc1`, 84 °C. `Cc1cnc(CCC(C)C#N)c(N)c1` (centres undefined): the melting point was 112 to 114 °C. To `CCC(=Cc1cn(CC(=O)N(C)CCc2ccccc2)c2cccc(OCc3ccccc3)c12)C(=O)O` belongs 170 to 174 °C.

Consider `Cc1cc(C)n(-c2ccc(NN)nn2)n1`, for which the melting point fell in the range of 142 to 143 °C.

`CC(CO)Oc1ccc2c(c1)c(-c1cc3cccnc3[nH]1)cn2C` (centres undefined) showed a melting point of 164 to 165 °C.

The molecule `COc1ccc([N+](=O)[O-])cc1CC#N` returned a melting point of 100 °C. To `CN1CC(c2ccccc2)c2ccccc2C(c2ccccc2)C1(C)C` (centres undefined) belongs 137 to 138 °C.

`Cn1c(C#N)c(F)n(-c2ccc(Cl)cc2)c1=O` gave a melting point of 105 °C. `COc1ccccc1NC(=O)CCCC(C)=O` gave a melting point of 101 to 102 °C. To `CC(SC1COC(c2ccc(C(=O)Nc3ccc(C#N)cc3F)cc2)OC1)C(O)(Cn1cncn1)c1ccc(F)cc1F` (centres undefined) belongs 136 °C. `OC1Cc2ccccc2C1N1CCCCC1` (centres undefined) had a melting point of 82 °C. To `CCCCc1ccc(-c2nc3c(s2)C(=O)C(NCCN(C)C)=CC3=O)cc1` belongs 126 to 127 °C; to `COc1ccc(Cn2c(C(=O)O)c(-c3ccc4c(c3)OCO4)c3cc(OCC(=O)O)ccc32)c(OCC(=O)O)c1`, 203 to 205 °C; to `CC(O)c1c(NC(=O)C(C)(C)C)cccc1C(F)(F)F` (centres undefined), 172 °C.

For `O=C(NC(=O)c1c(F)cccc1F)Nc1ccc(SC(F)(F)C(F)Cl)cc1F` (centres undefined), the melting point is 172 to 173 °C. `COc1cc2c(c3c1OC(C)(C)C3)C(c1cccc(NC(=O)CCCCl)c1)=NC(C)(C)C2` registered a melting point of 146 to 148 °C. To `CCC(C)C(NS(=O)c1ccc(C)cc1)C1(C(=O)NC)SCCS1` (centres undefined) belongs 147 to 154 °C; to `Cn1c(=O)cc(CCc2ccc(Cl)s2)c2cc(C(=O)c3ccc(Cl)cc3)ccc21`, 151 °C. To `CC(C)(C)OC(=O)CC[C@H](NC(=O)c1ccc(NCCc2ccccc2)cc1F)C(=O)OC(C)(C)C` belongs 71 to 72 °C. Molecule `Cc1c(Cl)cccc1-n1c(=O)[nH]c2cccnc21` registered a melting point of 224 to 225 °C. To `CC(C)(C)OC(=O)N1CCc2c(Br)cccc2C1` belongs 75.6 to 80.4 °C; to `CC(=O)Nc1ccc(OCC2CCN(CC(O)COc3cccc4c3CCN4C=O)CC2)cc1` (centres undefined), 177 to 179 °C. The molecule `C=C(C)C(=O)OCc1ccc(SC)cc1` came in with a melting point of 41 °C. As to `CC(C)n1cnc2c(Cl)nc(N)nc21`, the melting point fell in the range of 135 to 136 °C.

Regarding `Cc1ccc2nc(-c3ccccc3)cc(OCC(=O)N3CCOCC3)c2c1`, the melting point was 158 °C.

The molecule `COc1cccc([C@H](C(C)C)N2CCC(c3noc4cc(F)ccc34)CC2)c1` yielded a melting point of 40 to 42 °C. To `CN=C(O)c1cc(Cl)c(Sc2ccccc2C(=O)O)cc1C(=O)O` belongs 258 to 266 °C; to `CC(=O)C(=O)Nc1ccc(-c2ccc(C(=O)O)c(=O)[nH]2)cc1`, greater than 280 °C. To `CCCCCCCNc1nc(C)c(O)c(=O)[nH]1` belongs 233 to 235 °C. Molecule `CN1CCN(c2ccc(N)c(C(=O)O)c2)CC1` displayed a melting point of 212 °C.

Values taken from a melting point compilation (Tetko et al.; mined from patent text by program, amines drawn as free bases though some values may be those of a salt).
